# Measured values from patent US12559529B2, “NPY2 receptor agonists” (Boehringer Ingelheim International GmbH, priority 2019, dated 2026).
# *1 amine or outer side, *2 acyl side, *3 side chain or, on linkers, in order; H or OH if unused. Where a SMILES comes first, the peptide text is derived from it. Side-chain parts run from the residue outwards. The star is where a group is joined. C18 diacid = O=C(O)CCCCCCCCCCCCCCCCC(=O)*; γGlu = O=C(O)[C@H](CCC(=O)[*:2])N[*:1]; Isovaleryl = CC(C)CC(=O)*; AEEA = NCCOCCOCC(=O)O
# Target: T1, Human Neuropeptide Y2 Receptor (Homo sapiens, UniProt P49146)
# T1 construct: purchased CHEMICON HTS066M
# T1 sequence (P49146 1-381): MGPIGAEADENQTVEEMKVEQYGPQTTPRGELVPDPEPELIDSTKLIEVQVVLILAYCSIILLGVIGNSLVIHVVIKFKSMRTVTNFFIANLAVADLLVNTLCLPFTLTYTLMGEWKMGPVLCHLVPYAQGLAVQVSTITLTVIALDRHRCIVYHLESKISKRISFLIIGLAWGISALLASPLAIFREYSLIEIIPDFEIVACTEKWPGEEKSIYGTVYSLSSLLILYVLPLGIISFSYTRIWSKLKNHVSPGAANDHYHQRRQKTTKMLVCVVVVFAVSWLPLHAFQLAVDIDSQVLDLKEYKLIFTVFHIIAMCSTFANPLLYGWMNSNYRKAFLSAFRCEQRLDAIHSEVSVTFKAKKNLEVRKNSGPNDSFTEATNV
# Assay: Radioligand binding competition assay (RLB)
# Settings: Table 3; human 125I-PYY (1-36) 0.02 nM, Y2 receptor membranes; read-out: Ki
# In short: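 Membranes (0.5 μg/well) and test peptides, serially diluted from 1 mM DMSO stocks, were incubated 2 hours at room temperature in HEPES buffer pH 7.4 with Mg, Ca and ovalbumin.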
row,Ki [nM],SMILES
1,1.17,"CC(C)CC(=O)N[C@@H](C)C(=O)N1CCC[C@H]1C(=O)N[C@@H](CCC(=O)O)C(=O)N[C@@H](CCCCNC(=O)COCCOCCNC(=O)COCCOCCNC(=O)CC[C@H](NC(=O)CCCCCCCCCCCCCCCCC(=O)O)C(=O)O)C(=O)N1CCC[C@H]1C(=O)N1CCC[C@H]1C(=O)N[C@@H](CCC(=O)O)C(=O)N[C@@H](CCC(=O)O)C(=O)N[C@@H](C)C(=O)N[C@@H](CO)C(=O)N1CCC[C@H]1C(=O)N[C@@H](CCC(=O)O)C(=O)N[C@@H](CCC(=O)O)C(=O)N[C@@H](CC(C)C)C(=O)N[C@@H](CCC(N)=O)C(=O)N[C@@H](CCCNC(=N)N)C(=O)N[C@@H](Cc1ccc(O)cc1)C(=O)N[C@@H](Cc1ccc(O)cc1)C(=O)N[C@H](C(=O)N[C@@H](CO)C(=O)N[C@@H](CC(C)C)C(=O)N[C@@H](CCCNC(=N)N)C(=O)N[C@@H](Cc1c[nH]cn1)C(=O)N[C@@H](Cc1ccc(O)cc1)C(=O)N[C@@H](Cc1ccc(O)cc1)C(=O)N[C@@H](CC(N)=O)C(=O)N[C@@H](Cc1c[nH]c2ccccc12)C(=O)N[C@@H](CC(C)C)C(=O)N[C@H](C(=O)N[C@@H](CCCNC(=N)N)C(=O)N[C@@H](CCC(N)=O)C(=O)N[C@@H](CCCNC(=N)N)C(=O)N[C@@H](Cc1ccc(O)cc1)C(N)=O)[C@@H](C)O)C(C)C [Compound 142, N{alpha-4}-(3-methylbutanoyl)-N{epsilon-7}-[2-(2-{2-[2-(2-{2-[(4S)-4-carboxy-4-(17-carboxyheptadecanamido)butanamido]ethoxy}ethoxy)acetamido]ethoxy}ethoxy)acetamido]-[4A,7K,9P,11E,18Q,22V,28Y,30W,31L]hPYY (4-36)]"
2,8.92,"CC(C)CC(=O)N[C@@H](C)C(=O)N1CCC[C@H]1C(=O)N[C@@H](CCC(=O)O)C(=O)N[C@@H](CCCCNC(=O)COCCOCCNC(=O)COCCOCCNC(=O)CC[C@H](NC(=O)CCCCCCCCCCCCCCCCC(=O)O)C(=O)O)C(=O)N[C@@H](C)C(=O)N[C@@H](CCC(=O)O)C(=O)N[C@@H](CCC(=O)O)C(=O)N[C@@H](CC(=O)O)C(=O)N[C@@H](C)C(=O)N[C@@H](CO)C(=O)N1CCC[C@H]1C(=O)N[C@@H](CCC(=O)O)C(=O)N[C@@H](CCC(=O)O)C(=O)N[C@@H](CC(C)C)C(=O)N[C@@H](CCC(N)=O)C(=O)N[C@@H](CCC(N)=O)C(=O)N[C@@H](Cc1ccc(O)cc1)C(=O)N[C@@H](Cc1ccc(O)cc1)C(=O)N[C@H](C(=O)N[C@@H](CO)C(=O)N[C@@H](CC(C)C)C(=O)N[C@@H](CCCNC(=N)N)C(=O)N[C@@H](Cc1c[nH]cn1)C(=O)N[C@@H](Cc1ccc(O)cc1)C(=O)N[C@@H](Cc1ccc(O)cc1)C(=O)N[C@@H](CC(N)=O)C(=O)N[C@@H](Cc1c[nH]c2ccccc12)C(=O)N[C@@H](CC(C)C)C(=O)N[C@H](C(=O)N[C@@H](CCCNC(=N)N)C(=O)N[C@@H](CCC(N)=O)C(=O)N[C@@H](CCCNC(=N)N)C(=O)N[C@@H](Cc1ccc(O)cc1)C(N)=O)[C@@H](C)O)C(C)C [Compound 144, N{alpha-4}-(3-methylbutanoyl)-N{epsilon-7}-[2-(2-{2-[2-(2-{2-[(4S)-4-carboxy-4-(17-carboxyheptadecanamido)butanamido]ethoxy}ethoxy)acetamido]ethoxy}ethoxy)acetamido]-[4A,7K,8A,9E,18Q,19Q,22V,28Y,30W,31L]hPYY (4-36)] (Isovaleryl-APEK([AEEA-AEEA-γGlu-C18 diacid])AEEDASPEELQQYYVSLRHYYNWLTRQRY-NH2)"
3,1.55,"CC[C@H](C)[C@H](NC(=O)[C@H](CCC(=O)O)NC(=O)[C@H](CCC(=O)O)NC(=O)[C@@H]1CCCN1C(=O)[C@H](CO)NC(=O)[C@H](CO)NC(=O)[C@H](CC(=O)O)NC(=O)[C@H](CCC(=O)O)NC(=O)[C@H](CCC(=O)O)NC(=O)[C@@H]1CCCN1C(=O)[C@H](CCCCNC(=O)COCCOCCNC(=O)COCCOCCNC(=O)CC[C@H](NC(=O)CCCCCCCCCCCCCCCCC(=O)O)C(=O)O)NC(=O)[C@H](CCC(=O)O)NC(=O)[C@@H]1CCCN1C(=O)[C@H](C)NC(=O)CC(C)C)C(=O)N[C@@H](CCC(N)=O)C(=O)N[C@@H](CCCNC(=N)N)C(=O)N[C@@H](Cc1ccc(O)cc1)C(=O)N[C@@H](Cc1ccc(O)cc1)C(=O)N[C@H](C(=O)N[C@@H](CO)C(=O)N[C@@H](CC(C)C)C(=O)N[C@@H](CCCNC(=N)N)C(=O)N[C@@H](Cc1c[nH]cn1)C(=O)N[C@@H](Cc1ccc(O)cc1)C(=O)N[C@@H](Cc1ccc(O)cc1)C(=O)N[C@@H](CC(N)=O)C(=O)N[C@@H](Cc1c[nH]c2ccccc12)C(=O)N[C@@H](CC(C)C)C(=O)N[C@H](C(=O)N[C@@H](CCCNC(=N)N)C(=O)N[C@@H](CCC(N)=O)C(=O)N[C@@H](CCCNC(=N)N)C(=O)N[C@@H](Cc1ccc(O)cc1)C(N)=O)[C@@H](C)O)C(C)C [Compound 145, N{alpha-4}-(3-methylbutanoyl)-N{epsilon-7}-[2-(2-{2-[2-(2-{2-[(4S)-4-carboxy-4-(17-carboxyheptadecanamido)butanamido]ethoxy}ethoxy)acetamido]ethoxy}ethoxy)acetamido]-[4A,7K,9E,12S,17I,18Q,22V,28Y,30W,31L]hPYY (4-36)]"
4,5.05,"CC(C)CC(=O)N[C@@H](C)C(=O)N1CCC[C@H]1C(=O)N[C@@H](CCC(=O)O)C(=O)N[C@@H](CCCCNC(=O)COCCOCCNC(=O)COCCOCCNC(=O)CC[C@H](NC(=O)CCCCCCCCCCCCCCCCC(=O)O)C(=O)O)C(=O)N1CCC[C@H]1C(=O)N[C@@H](CCC(=O)O)C(=O)N[C@@H](CCC(=O)O)C(=O)N[C@@H](CCC(=O)O)C(=O)N[C@@H](C)C(=O)N[C@@H](CO)C(=O)N1CCC[C@H]1C(=O)N[C@@H](CCC(=O)O)C(=O)N[C@@H](CCC(=O)O)C(=O)N[C@@H](CC(C)C)C(=O)N[C@@H](CCC(N)=O)C(=O)N[C@@H](CCCNC(=N)N)C(=O)N[C@@H](Cc1ccc(O)cc1)C(=O)N[C@@H](Cc1ccc(O)cc1)C(=O)N[C@H](C(=O)N[C@@H](CO)C(=O)N[C@H](C(=O)N[C@@H](CCCNC(=N)N)C(=O)N[C@@H](Cc1c[nH]cn1)C(=O)N[C@@H](Cc1ccc(O)cc1)C(=O)N[C@@H](Cc1ccc(O)cc1)C(=O)N[C@@H](CC(N)=O)C(=O)N[C@@H](Cc1c[nH]c2ccccc12)C(=O)N[C@@H](CC(C)C)C(=O)N[C@H](C(=O)N[C@@H](CCCNC(=N)N)C(=O)N[C@@H](CCC(N)=O)C(=O)N[C@@H](CCCNC(=N)N)C(=O)N[C@@H](Cc1ccc(O)cc1)C(N)=O)[C@@H](C)O)[C@@H](C)O)C(C)C [Compound 146, N{alpha-4}-(3-methylbutanoyl)-N{epsilon-7}-[2-(2-{2-[2-(2-{2-[(4S)-4-carboxy-4-(17-carboxyheptadecanamido)butanamido]ethoxy}ethoxy)acetamido]ethoxy}ethoxy)acetamido]-[4A,7K,9E,11E,18Q,22V,24T,28Y,30W,31L]hPYY (4-36)] (Isovaleryl-APEK([AEEA-AEEA-γGlu-C18 diacid])PEEEASPEELQRYYVSTRHYYNWLTRQRY-NH2)"
5,1.19,"CC(C)CC(=O)N[C@@H](C)C(=O)N1CCC[C@H]1C(=O)N[C@@H](CCC(=O)O)C(=O)N[C@@H](CCCCNC(=O)COCCOCCNC(=O)COCCOCCNC(=O)CC[C@H](NC(=O)CCCCCCCCCCCCCCCCC(=O)O)C(=O)O)C(=O)N1CCC[C@H]1C(=O)N[C@@H](CCC(=O)O)C(=O)N[C@@H](CCC(=O)O)C(=O)N[C@@H](CC(=O)O)C(=O)N[C@@H](C)C(=O)N[C@@H](CO)C(=O)N1CCC[C@H]1C(=O)N[C@@H](CCC(=O)O)C(=O)N[C@@H](CCC(=O)O)C(=O)N[C@H](C(=O)N[C@@H](CCC(N)=O)C(=O)N[C@@H](CCCCN)C(=O)N[C@@H](Cc1ccc(O)cc1)C(=O)N[C@@H](Cc1ccc(O)cc1)C(=O)N[C@H](C(=O)N[C@@H](CO)C(=O)N[C@@H](CC(C)C)C(=O)N[C@@H](CCCNC(=N)N)C(=O)N[C@@H](Cc1c[nH]cn1)C(=O)N[C@@H](Cc1ccc(O)cc1)C(=O)N[C@@H](Cc1ccc(O)cc1)C(=O)N[C@@H](CC(N)=O)C(=O)N[C@@H](Cc1c[nH]c2ccccc12)C(=O)N[C@@H](CC(C)C)C(=O)N[C@H](C(=O)N[C@@H](CCCNC(=N)N)C(=O)N[C@@H](CCC(N)=O)C(=O)N[C@@H](CCCNC(=N)N)C(=O)N[C@@H](Cc1ccc(O)cc1)C(N)=O)[C@@H](C)O)C(C)C)[C@@H](C)O [Compound 147, N{alpha-4}-(3-methylbutanoyl)-N{epsilon-7}-[2-(2-{2-[2-(2-{2-[(4S)-4-carboxy-4-(17-carboxyheptadecanamido)butanamido]ethoxy}ethoxy)acetamido]ethoxy}ethoxy)acetamido]-[4A,7K,9E,17T,18Q,19K,22V,28Y,30W,31L]hPYY (4-36)]"
